Several values for one entry are separate records, joined by “and”; a condition that tells them apart may be missing. Equal entries are not always repeated.
How the values were obtained:
[1] = test system: human rhabdomyosarcoma cell line (RD); experiment: RD cell morphology, attachment and multinuclear cells; format: cell-based
Protocol: In the following experiment, a human rhabdomyosarcoma cell line (RD) purchased from the ATCC (#CCL-136) was used. These cells were isolated from a […] 7 years ago and are widely accepted as a model for studies of rhabdomyosarcoma in vitro and in vivo.
The cells were grown in Dulbecco's modified Eagle's medium (DMEM, Gibco®, Invitrogen, Carlsbad, Calif.) supplemented with 10% FBS. The cells were treated with 20 nM SkQ (SkQ1, SkQR1, SkQB1, or SkQBP1), or with a non-targeted antioxidant (1 mM NAC, or 100 μM Trolox) 24 to 72 hours before evaluation. In some experiments 1 μM of the protonophorous uncoupler FCCP was added 1 hour before the addition of SkQ1 to depolarize the mitochondrial membrane, and thus to prevent the electrophoretic accumulation of SkQ in the mitochondrial interior. The cells were then stained with rabbit polyclonal antibodies against actin (1:1000) (Sigma-Aldrich Corp., Baleras, Russia) and monoclonal antibody DM1A against tubulin (1:1000) (Sigma-Aldrich Corp.), and their morphology examined using an Axiovert fluorescent microscope equipped with objectives 20× (dry) and 100× (oil immersion Neofluar) (Carl Zeiss, Germany).

[2] = test system: HCT116 p53−/−; experiment: Growth of human large intestine carcinoma xenografts, inactivated p53; format: in vivo, mouse
Source text: Two human large intestine carcinoma cell sub-lines that differ by p53 status—wild type cells (HCT116 p53+/+)) and cells with inactivated p53 (HCT116 p53−/−)) cell line cultivation see in Bunz et al. (1998) Science, 282:1497-1500; see model description in Sablina et al. (2003), J. Biol. Chem., 278:27362-27371. One million cells were hypodermically implanted into thymus-deprived mice. Mice in each group were divided into 4 sub-groups of 10 mice: one group received water to drink; one group received water with SkQ1 (0.01 nmol) per mouse per day (0.5 nM/kg/day); one group received water with SkQ1 (0.1 nmol) per mouse per day (5 nM/kg/day); one group received water with SkQ1 (1 nmol) per mouse per day (50 nM/kg/day).
The size of the tumors was evaluated every 3 days. After 4 weeks mice were sacrificed and the tumors removed and fixed for histological assay.

[3] = Tolerance to the treatment and autopsy in mice with A-431 xenografts; format: in vivo
Protocol: Tolerance to the treatment was estimated according to the time of death which corresponded to the treatment with each preparation.
(§1) Mice were sacrificed by ether anesthesia overdose. An autopsy was performed, and tumors were then extracted and assayed histologically and immunohistochemically. Tumors were fixed in 10% formaldehyde and set into paraffin wax. Histological assays were carried out on tumor histological sections, stained with hematoxylin and eosin. The number of microvessels was examined by standard immunological method using antibodies to CD34 antigen. Presence of vessel mimicry was estimated by tumor section staining with Schiffs reagent.

[4] = test system: A-431 human skin cancer heteroxenografts; experiment: Anti-tumoral activity on A-431 heteroxenografts (tumor volume, T/C, histology); format: in vivo, mouse
Protocol: Before administration, SkQ1 was diluted with sterile physiological saline up to 0.5 μM and 5.0 μM. The preparation was injected intraperitoneally as single doses of 5.0 nM/kg and 50.0 nM/kg, 0.2 ml/mouse.
(1973) 51:1417-1423. • Morphology: epithelial. • Cultivation method: monolayer. • Cultivation conditions: 10% bovine embryonal serum DMEM culture. • Procedure of seeding: cell removal using 0.25% trypsin, 0.02% versene (3:7), ratio of seeding 1:3 1:6, optimal density 2.04.0×10^4 cell per sm^2 cryopreservation media, 10% DMSO, 1.0×10^6 cells/ml per ampoule. • Viability after cryopreservation: 83% (trypan blue staining on zero passage) • Contamination control: no bacteria, fungi or micoplasma detected • Genetic identity control: karyological, enzymatic (LDH, G6PDH) analysis. • Karyology: 2n-46, chromosome variability limit 5777, chromosome modal number 6871 • Tumorigenicity: tumorigenic in HIV mice and in mice treated with antithymocyte serum. • Other features: large number of receptors to epidermal growth factor. • Application area: growth factors study, cell biology. • Collection: ATCC CRL 1555; ECACC 85090402; INC RAS.
A-431 cells were grown on RPMI-1640 medium that contained 10% calf serum and 1 mM glutamine. Cells were transferred to a flask at a ratio of 1:2 or 1:3 from full monolayer. The medium was changed every 2 to 3 days. A cultivated cell suspension was then used to engraft HIV mice.
The experiment was performed using HIV female mice Balb/c nude at the age 8 to 9.5 weeks. All mice were raised in GU RONC. Mice were managed in specialized virus-free chamber with sterile aeration, fed with sterile briquette food and water under normalized temperature condition and moisture.
Cells of A-431 cell line were hypodermically implanted only once in number 1.7-1×10^6 per mouse in 0.2 ml of RPMI-1640 nutrition medium.
Anti-tumoral effect estimation was carried out using common rate T/C (Treatment/Control), evaluated as a ratio of average tumor volumes in treated and control groups given in percents. Rate was taken evaluated using the following formula T/C %=[…],
where Vo and Vk are the mean volumes of tumor in treated and control groups thereof. Thus, in the control group, T/C=100%. Mean volume was evaluated using the following formula: Vm (mm^3)=axbxc. T/C≦42% was taken as a minimal efficiency criterion (Anticancer Drug Development Guide (1997) (ed. B. A. Teicher) Humana Press, Totowa, N.J., pp. 101-125). To analyze the speed of growth (standarcy value), a ratio of mean tumor relative to the first one taken was determined as follows.
Evaluation started after the appearance of a palpable tumor (9 days after implantation). After that multiple tumor volume evaluations were performed until the 20th day after transplantation. The first evaluation of treated groups was performed during treatment, and the next three evaluations were performed during 6 days after end of the treatment. Tumor evaluations were stopped on the 21st to the 24th day after the first mouse died in three experiments.
as §1

[5] = Experiment 1, 5.0 nM/kg ip daily day 1-14
[6] = Experiment 1, 50.0 nM/kg ip daily day 1-14
[7] = Experiment 3, 5.0 nM/kg ip daily day 1-14
[8] = Experiment 1 material, Group 2, 5.0 nM/kg

Structure (SMILES): CC1=C(C)C(=O)C(CCCCCCCCCC[P+](c2ccccc2)(c2ccccc2)c2ccccc2)=CC1=O [SkQ1]
- Cell morphology ([1]; 20 nM, pretreatment for 24 hours): induced the formation of elongated cells
- Multinuclear cells in surviving cell fraction ([1]; 8th day of cultivation with SkQ1): enriched in multinuclear cells
- cells remained attached to the surface ([1]; 8th day of cultivation with nM SkQ1): about 4%
- Effect on tumors with inactivated p53 compared to WT p53 ([2]; SkQ1 in drinking water): stronger effect on the tumor with inactivated p53
- Tumor growth vs control group receiving pure water ([2]; SkQ1 in drinking water, 0.5-50 nM/kg/day, 4 weeks, inactivated p53): suppression of tumor growth
- dose of maximal effect ([2]; added to drinking water): 5 nM
- efficient concentration ([2]; in drinking water, equals 5 nM/kg/day, stated for the HCT116 study): 0.1 nmol per mouse per day
- Autopsy findings in organs [3, 5]: no visual signs of pathological changes
- Treatment tolerance [3, 5]: satisfactory
- Autopsy findings in organs [3, 6]: no pathological changes
- Treatment tolerance [3, 6]: satisfactory
- Autopsy findings in organs ([3]; Experiment 2, 5.0 nM/kg ip daily day 1-8): no visual signs of pathological changes
- Autopsy findings in organs [3, 7]: no visual signs of pathological changes
- Treatment tolerance [3, 7]: satisfactory
- T/C ([4]; Experiment 1, 5.0 nM/kg ip daily day 1-14, 14th day): 74%
- T/C ([4]; Experiment 1, 5.0 nM/kg ip daily day 1-14, 17th day): 67%
- T/C ([4]; Experiment 1, 5.0 nM/kg ip daily day 1-14, 20th day): 73%
- T/C ([4]; Experiment 1, 5.0 nM/kg ip daily, 9th day (after 8 injections)): 63%
- T/C ([4]; Experiment 1, 50.0 nM/kg ip daily day 1-14, 9th day): 159%
- T/C ([4]; Experiment 1, 50.0 nM/kg ip daily day 1-14, 14th day): 160%
- T/C ([4]; Experiment 1, 50.0 nM/kg ip daily day 1-14, 17th day): 134%
- T/C ([4]; Experiment 1, 50.0 nM/kg ip daily day 1-14, 20th day): 146%
- Tumor differentiation (histological assay) ([4]; Experiment 1 material, 5.0 nM/kg, vs control): partial tumor differentiation
- Number of microvessels in tumors (CD34, hot spots) ([4]; Experiment 1 material, 23rd day, 9th day after end of treatment, three groups (control, 5.0 and 50.0 nM/kg)): did not statistically differ
- Microvessel diameter [4, 8]: smaller diameter than in the control group
- Signs of vasculogenic mimicry (PAS staining) [4, 8]: no such signs were seen
- T/C ([4]; Experiment 2, 5.0 nM/kg ip daily day 1-8, 8th day): 61%
- T/C ([4]; Experiment 2, 5.0 nM/kg ip daily day 1-8, 14th day): 72%
- T/C ([4]; Experiment 2, 5.0 nM/kg ip daily day 1-8, 17th day): 96%
- T/C ([4]; Experiment 2, 5.0 nM/kg ip daily day 1-8, 24th day): 101%
- T/C ([4]; Experiment 3, 5.0 nM/kg ip daily day 1-14, immediately after the end of the treatment): 41% and 42%
- inhibition of growth ([4]; long-termed injection, single doses 5.0 nM/kg, in some cases): 50%
